Inhibition and IC50 data for two molecules are collected here from article PMC6210072 (ACS Omega, 2018).

The target in one assay is ROCK2 (Homo sapiens, UniProt O75116). Type of assay: biochemical. The conditions noted are these: read-out: ROCK2.
In another assay the target is PARP2 (Homo sapiens, UniProt Q9UGN5). Type of assay: biochemical.
PARP2, sequence (Q9UGN5 whole entry): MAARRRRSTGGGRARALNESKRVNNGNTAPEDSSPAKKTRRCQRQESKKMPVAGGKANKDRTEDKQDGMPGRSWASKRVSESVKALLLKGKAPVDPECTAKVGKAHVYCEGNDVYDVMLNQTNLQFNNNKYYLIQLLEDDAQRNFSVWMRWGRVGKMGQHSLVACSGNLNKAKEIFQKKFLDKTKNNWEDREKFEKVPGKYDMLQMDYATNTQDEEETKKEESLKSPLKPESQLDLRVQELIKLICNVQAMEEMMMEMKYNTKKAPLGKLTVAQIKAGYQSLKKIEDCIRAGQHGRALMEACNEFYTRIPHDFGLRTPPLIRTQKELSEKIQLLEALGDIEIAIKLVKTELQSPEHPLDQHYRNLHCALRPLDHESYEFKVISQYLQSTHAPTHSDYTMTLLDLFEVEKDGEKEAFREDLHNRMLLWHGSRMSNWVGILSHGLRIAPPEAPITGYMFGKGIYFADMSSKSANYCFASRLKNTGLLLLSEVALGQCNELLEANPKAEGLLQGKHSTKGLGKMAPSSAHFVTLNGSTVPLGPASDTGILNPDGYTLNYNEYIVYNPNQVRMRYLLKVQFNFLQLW

ROCK2, sequence (O75116 whole entry): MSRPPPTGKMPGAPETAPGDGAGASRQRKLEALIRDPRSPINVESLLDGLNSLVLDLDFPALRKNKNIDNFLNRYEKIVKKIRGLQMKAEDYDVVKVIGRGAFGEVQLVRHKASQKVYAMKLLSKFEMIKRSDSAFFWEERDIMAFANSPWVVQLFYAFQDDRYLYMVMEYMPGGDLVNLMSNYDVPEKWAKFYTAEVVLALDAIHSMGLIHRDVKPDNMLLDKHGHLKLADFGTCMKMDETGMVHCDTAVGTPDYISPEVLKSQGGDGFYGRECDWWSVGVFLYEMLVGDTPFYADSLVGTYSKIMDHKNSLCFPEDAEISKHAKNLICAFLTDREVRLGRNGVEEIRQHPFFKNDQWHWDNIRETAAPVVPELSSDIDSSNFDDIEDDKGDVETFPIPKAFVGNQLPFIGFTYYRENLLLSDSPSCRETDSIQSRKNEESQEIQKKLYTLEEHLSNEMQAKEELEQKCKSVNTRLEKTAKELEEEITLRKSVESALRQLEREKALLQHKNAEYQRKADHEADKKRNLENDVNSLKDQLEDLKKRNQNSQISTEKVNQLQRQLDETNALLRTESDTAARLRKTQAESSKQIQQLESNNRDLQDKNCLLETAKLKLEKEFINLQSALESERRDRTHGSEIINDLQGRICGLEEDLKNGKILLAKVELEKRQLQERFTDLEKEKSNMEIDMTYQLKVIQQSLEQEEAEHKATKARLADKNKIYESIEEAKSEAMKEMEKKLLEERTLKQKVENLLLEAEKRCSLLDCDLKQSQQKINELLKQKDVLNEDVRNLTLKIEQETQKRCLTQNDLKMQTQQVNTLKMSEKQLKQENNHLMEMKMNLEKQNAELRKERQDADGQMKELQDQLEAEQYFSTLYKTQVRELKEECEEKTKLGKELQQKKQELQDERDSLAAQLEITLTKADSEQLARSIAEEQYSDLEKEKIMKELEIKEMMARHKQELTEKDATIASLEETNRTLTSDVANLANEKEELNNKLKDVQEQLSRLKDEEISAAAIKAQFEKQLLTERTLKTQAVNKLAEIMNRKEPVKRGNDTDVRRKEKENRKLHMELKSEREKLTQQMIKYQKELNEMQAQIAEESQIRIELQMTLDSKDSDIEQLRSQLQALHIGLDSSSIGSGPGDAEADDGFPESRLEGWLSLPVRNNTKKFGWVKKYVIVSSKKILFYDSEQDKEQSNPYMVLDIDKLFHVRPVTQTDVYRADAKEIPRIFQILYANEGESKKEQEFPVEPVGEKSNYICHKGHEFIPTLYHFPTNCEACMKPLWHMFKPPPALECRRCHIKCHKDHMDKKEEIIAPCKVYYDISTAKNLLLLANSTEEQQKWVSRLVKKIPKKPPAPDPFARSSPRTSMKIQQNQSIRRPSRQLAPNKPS

Turning to `O=C(COc1cccc2c(=O)[nH]ccc12)c1ccccc1` [compound 6, UPF 1069], on ROCK2, the inhibition at 10 µM came to 20.5 ± 0.4%.
In the case of `O=S(=O)(c1cccc2c(O)nccc12)N1CCCNCC1` [compound 4, hydroxyfasudil], on PARP2, the half-maximal inhibitory concentration (IC50) worked out at 35.1 µM.

The term IC50 denotes the concentration that gives 50% inhibition.
